According to patent US11402382B2, “Diagnostic and therapeutic methods for cancer” (Genentech, Inc., priority 2017, dated 2022):

What was measured:
[1] = test system: vascular signature, Th1 chemokine, CD8 T-effector and NK cell genes in mRCC tumor biopsies; experiment: Phase Ib tumor biopsy gene expression analysis (Fluidigm PCR panel, NanoString panel); assay type: in vivo, human
Protocol: RNA isolation was performed as described by Schleifman et al. (PLoS One 8:e74231, 2014). Briefly, tumor FFPE sections were macro dissected to enrich for neoplastic tissue, and tissue was lysed using tumor lysis buffer and Proteinase K to allow for complete digestion and release of nucleic acids. RNA was isolated using the High Pure FFPE RNA Micro Kit (Roche Applied Sciences, Indianapolis, Ind.) according to the manufacturer's protocol. DNA was isolated using the QIAAMP® DNA FFPE Tissue Kit (Qiagen, Hilden, Germany) according to the manufacturer's protocol. RNA and DNA were stored at 280 uC until the analyses were performed.
Gene-expression analysis was performed using the BioMark HD™ real-time PCR Platform (Fluidigm) as described by Schleifman et al. (PLoS One 8:e74231, 2014). All TAQMAN® assays in the expression panel used FAM™ dye-labeled TAQMAN® minor groove binder (MGB) probes and ordered through Life Technologies either made-to-order or custom-designed, including four reference genes: SP2, GUSB, TMEM55B and VPS33B. A geometric median of the Ct values for the four reference genes (SP2, GUSB, TMEM55B and VPS33B) was calculated for each sample, and expression levels were determined using the delta Ct (ΔCt) method as follows: Ct (target Gene)2GeoMedian Ct (reference genes). Median mRNA expression levels (as measured by immunochip (iChip)) across patients on study were used as cutoffs to derive high- versus low-expression categorization. P values were determined by t test.
NanoString gene expression data were processed using the R/Bioconductor package “NanoStringQCPro.” Raw counts were adjusted by positive control counts before probe- and lane-specific background was calculated based on both negative controls and blank measurements. After background correction, counts were log2 transformed and normalized by housekeeping gene expression (TMEM55B, VPS33B, TBP, and TUBB).
In addition to safety, tolerability, and clinical activity, one key objective of the phase Ib study described above was to evaluate the mechanism of combination activity. The trial design included a run-in period with bevacizumab to specifically interrogate the effects of bevacizumab on the local tumor immune microenvironment, followed by combination therapy with immune checkpoint blockade using atezolizumab. Tumor biopsies and blood were collected prior to treatment, 15-18 days following bevacizumab, and 4-6 weeks after the atezolizumab and bevacizumab combination treatment had been initiated.
To identify tumor markers associated with bevacizumab monotherapy or combination therapy, gene expression analysis was performed using both a 90 gene PCR-based Fluidigm panel and an 800 gene custom NanoString panel. […]

[2] = test system: immune and vasculature markers in mRCC tumor sections; experiment: Phase Ib tumor immunohistochemistry (CD34/αSMA, CD8, Ki67/CD8, MHC-I, PD-L1); assay type: in vivo, human
Protocol: Formalin-fixed, paraffin-embedded (FFPE) tissue sections of 4 μm thickness were stained for PD-L1 with an anti-human PD-L1 rabbit monoclonal antibody (clone SP142; Ventana, Tucson, Ariz.) on an automated staining platform (BenchMark; Ventana) using a concentration of […], with signal visualization by diaminobenzidine; sections were counter-stained with haematoxylin. PD-L1 expression was evaluated on tumor cells and tumor-infiltrating immune cells. […] For tumor-infiltrating immune cells, the percentage of PD-L1-positive tumor-infiltrating immune cells occupying the tumor was determined. […] Specimens were scored as IHC 0, 1, 2, or 3 if <1%, ≥1% but <5%, ≥5% but <10%, or ≥10% of cells per area were PD-L1 positive, respectively. […]
All MHC-I IHC steps were carried out on the Ventana Discovery XT automated platform (Ventana Medical Systems; Tucson, Ariz.). […] Bound primary antibody was detected by the OMNIMAP™ anti-rabbit HRP detection kit, followed by DAB (Ventana Medical Systems; Tucson, Ariz.). […] MHC-I staining in tumor cells was scored using an H-score system. […] Relative to the overall tumor area, the percentage of cells at different staining intensities was determined by visual assessment. […] Cases were scored by two independent pathologists. […]

bevacizumab: recombinant humanized anti-VEGF monoclonal antibody, also known as rhuMAb VEGF or AVASTIN®
expression of genes associated with the neo-vasculature (VEGF downstream signaling) ([1]; both on-treatment time points vs pre-treatment, all patients): significantly decreased
VEGF transcript expression in tumors ([1]; normalized to housekeeping gene expression, FIG. 11): upregulation
consistent changes in FasL gene expression ([1]; on-treatment tumor): not observed
patients showing a significant increase in gene signatures related to Th1 signaling ([1]; six patients with paired biopsies): four of the six
effect on vessels, dual staining of CD34 with αSMA ([2]; immature or unstable vessels (CD34+/αSMA−)): primarily affected
MHC-I staining ([2]; on-treatment tumor vs pre-treatment): increase
